Results on 22 molecules are retold here after patent US20110207729A1, “BICYCLIC ACYLGUANIDINE DERIVATIVE” (ASTELLAS PHARMA INC., priority 2007, published 2011).

In general, Ki refers to a dissociation constant, usually derived from enzyme kinetics or from competition with a known ligand.

One test concerns Male ddY mouse. The experiment in a line: Spontaneous alternation behavior (Y-maze) impaired by Scoporamine in mice. Type of test: in vivo. As to conditions: dose of 0.03 mg/kg, oral, Scoporamine 0.5 mg/kg i.p., p<0.05. The protocol:
An improvement effect for spontaneous alternation behavior caused by Scoporamine or MK-801 in mice
An effect of the compound (I) on improvement on cognitive impairment was evaluated by using a known performance test method as a model with short-term learning disorder.
The compound to be tested was administered orally 10 to 30 minutes before the test, and 0.5 mg/kg Scoporamine or 0.15 mg/kg MK-801 (for a normal group, physiological saline) was administered intraperitoreally, and the test was performed after 20 minutes. […]
A mouse was placed at the end of one arm of a Y-maze having arms with the same length in three directions, and then explored freely and the number of arm entries was counted for 8 minutes. […] The ratio of the number of the behaviors to the total number of entries was calculated as an alternation rate by the following formula: […]
If a significant difference between the normal group and the control group (Student's t test) was approved in the alternation rate (%), it was considered to have learning disorder by the administration of Scoporamine or MK-801. By carrying out a Dunnett's test on the group administered with the compound to be tested relative to the control group, the presence or absence of an action of the compound to be tested on learning disorder was evaluated. […]
As for `NC(N)=NC(=O)c1ccc2c(c1)C(c1ccccc1)=CCC2` [Example 2-37], the “improvement of alternation rate impaired by Scoporamine” value is given as “significantly improved”.

In a further test the test system is Male ICR mouse. The experiment in a line: Hyperactivity caused by methamphetamine (MAP) in mice, infrared motion measurement. Type of test: in vivo. Conditions: dose of 0.03 mg/kg, oral; MAP 1 mg/kg i.p.; P<0.05. The protocol:
(§1) Various Drug Evaluations on a Drug for Increasing the Motion of Mice (methamphetamine, MK-801) (Radiated Infrared Motion Measurement)
(§2) An effect of the compound (I) on improvement on schizophrenia by was evaluated by measuring the inhibited motion through the administration of the compound in a model having a symptom caused by methamphetamine (which is hereinafter simply referred to MAP) and MK-801.
(§3) An animal was taken out of a breeding cage, orally administered with a compound to be tested, and then placed into a cage for breeding. After 30 minutes, the animal was put into a cage for measurement, and the motion with the compound to be tested alone was measured. Further, after 30 to 90 minutes, the animal was taken out, and intraperitoneally administered with a drug for increasing the motion (MAP; 1 mg/kg or MK-801; 0.3 mg/kg, dissolved in a physiological saline, respectively). Then, the motion for a certain period of time (60 minutes) was measured by using a motion measurement device (CompACT AMS from Muromachi Kikai Co., Ltd.) by means of an infrared sensor.
(§4) For a normal mouse (a mouse administered with physiological saline) and a mouse administered with a drug for increasing the motion, a Student's T test was performed for evaluation for each interval. […]
Regarding `NC(N)=NC(=O)c1ccc2c(c1)C(c1ccccc1)=CCC2` [Example 2-37], the “inhibition of hyperactivity caused by methamphetamine” value is reported as “significantly inhibited”.

Another test concerns Male ICR mouse. Briefly: Hyperactivity caused by MK-801 in mice, infrared motion measurement. The format is in vivo. As to conditions: dose of 0.03 mg/kg, oral; MK-801 0.3 mg/kg i.p.; P<0.05. The procedure: as §1, §2, §3, §4
Turning to `COc1ccccc1C1=CCCc2ccc(C(=O)N=C(N)N)cc21` [Example 2-06], the “inhibition of hyperactivity caused by MK-801” value is listed as “significantly inhibited”.

The test is the same for the next values; noted with them: dose of 0.1 mg/kg, oral; MK-801 0.3 mg/kg i.p.; P<0.05.
Take `Cc1ccc(C2=CCOc3ccc(C(=O)N=C(N)N)cc32)c(F)c1` [Example 1-47]: the “inhibition of hyperactivity caused by MK-801” value is “significantly inhibited”.

The target in the next test is T1, human 5-HT5A receptor (Homo sapiens, UniProt P47898).
T1 construct: expressed in transfected cells; membrane preparation
T1 sequence (P47898 whole entry): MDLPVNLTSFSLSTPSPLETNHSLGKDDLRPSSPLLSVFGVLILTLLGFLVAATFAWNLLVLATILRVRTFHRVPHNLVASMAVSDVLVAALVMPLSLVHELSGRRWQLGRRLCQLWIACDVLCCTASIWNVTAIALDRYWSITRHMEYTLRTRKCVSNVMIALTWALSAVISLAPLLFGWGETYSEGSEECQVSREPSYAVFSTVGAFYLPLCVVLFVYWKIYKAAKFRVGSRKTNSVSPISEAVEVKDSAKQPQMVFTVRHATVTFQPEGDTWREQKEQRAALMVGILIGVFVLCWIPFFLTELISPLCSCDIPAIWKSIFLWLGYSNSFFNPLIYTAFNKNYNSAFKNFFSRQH
The experiment in a line: Test on a human 5-HT5A receptor binding inhibition ([3H]5-CT). As to conditions: membrane from HEK293 cells expressing human 5-HT5A receptor; Ki calculated from IC50 and Kd 4.95 nM. In short, it runs like this:
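Membranes came from G418-selected HEK293 cells expressing human 5-HT5A, in Tris pH 7.4 with MgSO4 and EDTA. They were preincubated 15 min at RT with compound, then 2 nM [3H]5-CT solution was added for 60 min at 37 °C, followed by GF/C filtration and counting. IC50 used 1 µM 5-CT as 100%; Ki by Cheng–Prusoff (Kd 4.95 nM, Scatchard).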
As to `NC(N)=NC(=O)c1ccc2c(c1)C(c1ccccc1)=CCC2` [Example 2-37], the Ki is 0.3 to 3 nM.
Take `COc1ccccc1C1=CCCc2ccc(C(=O)N=C(N)N)cc21` [Example 2-06]: the Ki was 0.3 to 3 nM.
In the case of `Cc1ccc(C2=CCOc3ccc(C(=O)N=C(N)N)cc32)c(F)c1` [Example 1-47], the inhibition constant (Ki) is 0.3 to 3 nM.
On to `CC1(C)CCC(c2c(F)cc(F)cc2F)c2cc(C(=O)N=C(N)N)ccc21` (centres unmarked) [Example 3-34], for which the Ki is 30 to 300 nM.
As to `N#Cc1cc(F)ccc1C1=CCOc2ccc(C(=O)N=C(N)N)cc21` [Example 1-48], the Ki was 3 to 30 nM.
On the same count and under the same terms, next, `NC(N)=NC(=O)c1ccc2c(c1)C(c1cccc(Cl)c1F)=CCC2` [Example 2-110]: 0.3 to 3 nM; `CSc1ccccc1C1=CCCc2ccc(C(=O)N=C(N)N)cc21` [Example 2-82]: 3 to 30 nM.
Still for that read-out and setting: next, `CC1C=C(c2ccc(F)c(F)c2)c2cc(C(=O)N=C(N)N)ccc2O1` (centres unmarked) [Example 1-146]: 30 to 300 nM; `N#Cc1ccc(C2=CCSc3ccc(C(=O)N=C(N)N)cc32)cc1` [Example 3-17]: 3 to 30 nM; `COc1ccc(-c2csc3ccc(C(=O)N=C(N)N)cc23)c(OC)c1` [Example 3-20]: 3 to 30 nM.
On the same count and under the same terms, next, `NC(N)=NC(=O)c1ccc2c(c1)C(c1cc(F)ccc1Cl)=CCO2` [Example 1-103]: 0.3 to 3 nM.
Turning to `Cc1ccc(Cl)c(C2=CCOc3ccc(C(=O)N=C(N)N)cc32)c1F` [Example 1-82], the Ki was 0.3 to 3 nM.
Consider `Cn1cc(C2=CCCc3ccc(C(=O)N=C(N)N)cc32)ccc1=O` [Example 2-191], for which the Ki was 30 to 300 nM.
Same read-out and setting: next, `NC(N)=NC(=O)c1ccc2c(c1)C(c1cc(F)c(F)cc1F)=CCO2` [Example 1-53]: 3 to 30 nM.
Take `Cn1nccc1C1=CCCc2ccc(C(=O)N=C(N)N)cc21` [Example 2-81]: the Ki was 3 to 30 nM.
For the molecule `NC(N)=NC(=O)c1ccc2scc(-c3ccccc3F)c2c1` [Example 3-26], the Ki is 0.3 to 3 nM.
As for `CC1C=C(c2ccc(C#N)cc2)c2cc(C(=O)N=C(N)N)ccc2O1` (centres unmarked) [Example 1-72], the Ki is 3 to 30 nM.
On the same count and under the same terms, next, `NC(N)=NC(=O)c1ccc2c(c1)C(c1ccc(F)cc1F)=C(F)CC2` [Example 2-90]: 3 to 30 nM; `COc1ccccc1C1=CCSc2ccc(C(=O)N=C(N)N)cc21` [Example 3-18]: 30 to 300 nM; `N#Cc1ccc(C2=CCOc3c(F)cc(C(=O)N=C(N)N)cc32)cc1` [Example 1-87]: 30 to 300 nM.
With `NC(N)=NC(=O)c1ccc2c(c1)C(c1ccccc1)=CCCO2` [Example 3-10], the Ki was 3 to 30 nM.
As for `NC(N)=NC(=O)c1ccc2c(c1)C(c1ccc(C(F)(F)F)cc1C(F)(F)F)=CCO2` [Example 1-83], the Ki is 30 to 300 nM.
